Experimental data reported in US6872850B2, “Small molecule inhibitors of secretion of proteins encoded by ARE-mRNAs” (Message Pharmaceuticals, priority 2001, dated 2005).

What was measured:
[1] = system: 3′ UTR of the TNFα gene; test: cell-based luciferase reporter assay, 5B cell line (luciferase gene with entire 3′ UTR of the TNFα gene); parameters: species or system mouse; conditions: for Luciferase 5B (% of DMSO control): 1 h, then LPS, 5B cell line
Description: The candidate compounds were tested in a high-throughput, cell-based luciferase reporter assay. For this assay, a commercially available mouse macrophage Raw 264.7 cell line was stably transfected with a construct containing the CMV promoter operably linked to the luciferase gene which was modified using standard molecular biology techniques to contain the entire 3′ UTR of the TNFα gene. This 3′ UTR is important for the stability and translation of TNFα in cells. To control for effects of candidate compounds that are not specific for TNFα, a control cell line, called “3B,” was generated by stably transfecting the 264.7 cell line with a commercially available construct containing the luciferase gene (without the addition of the heterologous 3′ UTR of the TNFα gene) under the regulation of the CMV promoter.
[…] Then, lipopolysaccharide (LPS) was added to stimulate TNFα secretion. Luciferase activity was measured by determining the luminescence intensity due to the reaction of lucifern, ATP, Mg^2+, and molecular O2 (see, for example, Ausubel et al., supra). The luciferase activity in a cell incubated with a candidate compound was reported as a percentage of the luciferase activity for the corresponding cell incubated with DMSO vehicle only.
After correction for any effect caused by the administration of the DMSO only vehicle control, the effect of a candidate compound on luciferase activity in the 3B control cell line represents the global effect of the compound on any step required for expression or activity of luciferase protein, such as luciferase gene transcription, mRNA processing, mRNA stability, translation, protein stability, or enzymatic activity. […] In this case, the luciferase activity in the 5B cell line treated with the DMSO vehicle control is similar to the luciferase activity in the control 3B cell line treated with the candidate compound. Thus, the response of the 5B cell line (as a percent of the DMSO control) and the ratio of the luciferase activity in the 5B cell line (as a percent of the DMSO control) to the luciferase activity in the control 3B cell line (as a percent of the DMSO control) are similar. In desirable embodiments, the response of the 5B cell line and the 5B/3B ratio differ by less than 50, 40, 30, 20, 10, or 5%.

[2] = system: TNFα; test: ELISA of TNFα secreted into the media after LPS; assay type: cell-based; conditions: 10 μM compound, 1 h, then LPS
Description: The ability of candidate compounds to reduce the amount of secreted TNFα was also directly tested using an ELISA assay. […] A standard ELISA analysis was used to measure the amount of TNFα secreted into the media (see, for example, Ausubel et al., supra). The effect of a candidate compound on TNFα secretion in this assay is reported in the following tables as a percentage of the amount of TNFα secreted by a control cell that was administered a DMSO vehicle control only.

[3] = 10 μM compound, ratio of 5B to control 3B cell line

SMILES	effect on luciferase activity in the 5B cell line (luciferase assay), in words [1]	Luciferase 5B (% of DMSO control) ([1]; 10 μM compound)	Luciferase 5B/3B (% of DMSO control 5B)/(% of DMSO control 3B) [1, 3]	TNFα Secretion (% of DMSO control) [2]	Luciferase 5B/3B (% of DMSO control 5B)/(% of DMSO control 3B) ([1]; 10 μM compound (Table 11))
CC(=NNC(=N)N)c1cccc(C(=O)NC(CC2CCCCC2)C(=O)N2CCN(C(=O)C(Cc3ccccc3)NC(=O)c3ccc(C(=NNC(=N)N)c4ccccc4)cc3)CC2)c1 (mixture of isomers) [MES 10181]	inhibited TNFα secretion	17 % of DMSO control	49 (% of DMSO control 5B)/(% of DMSO control 3B)		
CC(=NNC(=N)N)c1cccc(C(=O)NC(C(=O)N2CCN(C(=O)C(Cc3ccccc3)NC(=O)c3ccc(C(=NNC(=N)N)c4ccccc4)cc3)CC2)C(C)C)c1 (mixture of isomers) [MES 10183]	inhibited TNFα secretion	58 % of DMSO control	57 (% of DMSO control 5B)/(% of DMSO control 3B)		
CCCCC(NC(=O)c1ccc(C(=NNC(=N)N)c2ccccc2)cc1)C(=O)N1CCN(C(=O)C(Cc2ccccc2)NC(=O)c2ccc(C(=NNC(=N)N)c3ccccc3)cc2)CC1 (mixture of isomers) [MES 10184]		22 % of DMSO control	35 (% of DMSO control 5B)/(% of DMSO control 3B)		
CCCCC(NC(=O)c1cccc(C(C)=NNC(=N)N)c1)C(=O)N1CCN(C(=O)C(Cc2ccccc2)NC(=O)c2ccc(C(=NNC(=N)N)c3ccccc3)cc2)CC1 (mixture of isomers) [MES 10185]	inhibited TNFα secretion	31 % of DMSO control	35 (% of DMSO control 5B)/(% of DMSO control 3B)	37 % of DMSO control	
CC(C)CC(NC(=O)c1ccc(C(=NNC(=N)N)c2ccccc2)cc1)C(=O)N1CCN(C(=O)C(Cc2cccc3ccccc23)NC(=O)c2ccc(C(=NNC(=N)N)c3ccccc3)cc2)CC1 (mixture of isomers) [MES 10191]		46 % of DMSO control	86 (% of DMSO control 5B)/(% of DMSO control 3B)	22 % of DMSO control	
CC(C)CC(NC(=O)c1ccc([N+](=O)[O-])cc1)C(=O)N1CCN(C(=O)C(Cc2ccccc2)NC(=O)c2ccc(C(=NNC(=N)N)c3ccccc3)cc2)CC1 (mixture of isomers) [MES 10224]		36 % of DMSO control	37 (% of DMSO control 5B)/(% of D		
CC(C)CC(NC(=O)c1ccc(I)cc1)C(=O)N1CCN(C(=O)C(Cc2ccccc2)NC(=O)c2ccc(C(=NNC(=N)N)c3ccccc3)cc2)CC1 (mixture of isomers) [MES 10226]	greatest inhibitor activity	23 % of DMSO control	26 (% of DMSO control 5B)/(% of D		
CC(C)CC(NC(=O)c1ccc(Cl)cc1)C(=O)N1CCN(C(=O)C(Cc2ccccc2)NC(=O)c2ccc(C(=NNC(=N)N)c3ccccc3)cc2)CC1 (mixture of isomers) [MES 10227]		34 % of DMSO control	39 (% of DMSO control 5B)/(% of D		
CC(C)CC(NC(=O)c1ccc2ccccc2c1)C(=O)N1CCN(C(=O)C(Cc2ccccc2)NC(=O)c2ccc(C(=NNC(=N)N)c3ccccc3)cc2)CC1 (mixture of isomers) [MES 10228]		38 % of DMSO control	40 (% of DMSO control 5B)/(% of D		
CC(C)CC(NC(=O)c1ccc(C(=NNC(=N)N)c2ccccc2)cc1)C(=O)N1CCN(C(=O)C(Cc2ccccc2)NC(=O)CCc2cccnc2)CC1 (mixture of isomers) [MES 10234]		60 % of DMSO control	58 (% of DMSO control 5B)/(% of D		
CC(C)CC(NC(=O)c1ccc(C(=NNC(=N)N)c2ccccc2)cc1)C(=O)N1CCN(C(=O)C(Cc2ccccc2)NC(=O)c2cnccn2)CC1 (mixture of isomers) [MES 10235]		70 % of DMSO control	75 (% of DMSO control 5B)/(% of D		
CC(=NNC(=N)N)c1cccc(C(=O)NC(CC(C)C)C(=O)N2CCN(C(=O)C(Cc3ccc([N+](=O)[O-])cc3)NC(=O)c3ccc(C(=NNC(=N)N)c4ccccc4)cc3)CC2)c1 (mixture of isomers) [MES 10257]		34 % of DMSO control	60 (% of DMSO control 5B)/(% of DMSO control 3B)		
CC(=NN=C(N)N)c1cccc(C(=O)NC(CC(C)C)C(=O)N2CCN(C(=O)C(CC(C)C)NC(=O)c3ccc(C(=NN=C(N)N)c4ccccc4)cc3)CC2)c1 (mixture of isomers) [MES 11408]	decrease TNFα secretion	59 % of DMSO control	54 (% of DMSO control 5B)/(% of D		
CC(=NN=C(N)N)c1cccc(C(=O)NC(CC(C)C)C(=O)NCCCNC(=O)C(C)NC(=O)c2ccc(C(=NN=C(N)N)c3ccccc3)cc2)c1 (mixture of isomers) [MES 11411]	decrease TNFα secretion	65 % of DMSO control	71 (% of DMSO control 5B)/(% of D		
CC(=NNC(=N)N)c1cccc(C(=O)NC(C)C(=O)N2CCN(C(=O)C(Cc3ccccc3)NC(=O)c3ccc(C(=NNC(=N)N)c4ccccc4)cc3)CC2)c1 (mixture of isomers) [MES 11465]	decrease TNFα secretion	72 % of DMSO control	71 (% of DMSO control 5B)/(% of D		
C/C(=N\N=C(N)N)c1cccc(C(=O)NCCNC(=O)[C@H](Cc2ccccc2)NC(=O)c2ccc(C(=O)c3ccccc3)cc2)c1.O=C(O)C(F)(F)F [MES 10093, (4-E)-Guanylhydrazone of 1-[(S)-N-(4-benzoylbenzoyl)-2-amino-3-phenylpropanoyl]-4-(3-acetylbenzoyl)-1,4-diazabutane trifluoroacetate]					47 (% of DMSO control 5B)/(% of D
O=C(N[C@@H](Cc1ccccc1)C(=O)N1CCN(C(=O)CCCC(=O)N2CCN(c3ccccc3)CC2)CC1)c1ccc(C(=O)c2ccccc2)cc1 [MES 10246]		46 % of DMSO control	74 (% of DMSO control 5B)/(% of D		
CN1CCN(C(=O)CCC(=O)N2CCN(C(=O)[C@H](Cc3ccccc3)NC(=O)c3ccc(C(=O)c4ccccc4)cc3)CC2)CC1 [MES 10301]		76 % of DMSO control	105 (% of DMSO control 5B)/(% of D		
CC(NC(=O)c1ccc(C(=O)c2ccccc2)cc1)C(=O)N1CCN(C(=O)CCC(=O)N2CCN(c3ccccc3)CC2)CC1 (stereo not drawn) [MES 10304]		49 % of DMSO control	64 (% of DMSO control 5B)/(% of D		
CC(=O)N[C@@H](Cc1ccccc1)C(=O)N1CCN(C(=O)[C@H](CC(C)C)NC(=O)c2cccc(/C(C)=N/NC(=N)N)c2)CC1 [MES 10306]		85 % of DMSO control	125 (% of DMSO control 5B)/(% of D		
